Results: patent US4887995A, “Method of treating sickle cell anemia” (University of Pittsburgh, priority 1985, dated 1989)

Experiments:
[1] = test system: erythrocyte membranes; experiment: transport across erythrocyte membranes; type: in vitro ADME
[2] = test system: HbS; experiment: chromatographic separation for covalent binding to HbS
[3] = test system: sickle hemoglobin (HbS); experiment: solubility assay: ability of a compound to increase solubility of sickle hemoglobin; type: biochemical; details: low concentrations (5 mM.); the higher the ratio the higher the activity; compared with DiClBz and p-BrBz
From the text: In comparative tests which we reported in J. of Med. Chem., 1984, 27, 103-105, which is incorporated herein by reference, ethacrynic acid was compared with active agents (1) [(3,4-dichlorobenzyl)oxy]acetic acid (DiClBz2) and (2) [(p-bromobenzyl)oxy]acetic acid (p-BrBz). The solubility assay measures the ability of a compound to increase solubility of sickle hemoglobin (HbS). […] The higher the ratio the higher the activity of the compound.

C=C(CC)C(=O)c1ccc(OCC(=O)O)c(Cl)c1Cl [ethacrynic acid]
ability to cross the red blood cell membrane and react with hemoglobin [1]: confirmed the ability of ethacrynic acid to cross the red blood cell membrane and react with hemoglobin
covalent binding between HbS and compound [2]: desired tight covalent binding between the HbS and ethacrynic acid had occurred
solubility ratio [3]: higher solubility ratio than DiClBz and p-BrBz
